Assay results as given in patent publication US20230227437A1, “IMMUNOMODULATOR” (priority 2020, published 2023).

Key:
[1] = molecular target: T1, human IL-17A (hIL-17A) (Homo sapiens, UniProt Q16552); test: IL-17A enzyme-linked immunosorbent assay (competitive ELISA, receptor-ligand binding)
T1 construct: purchased Sino Biological Inc. 12047-H07B
T1 sequence (Q16552 24-155): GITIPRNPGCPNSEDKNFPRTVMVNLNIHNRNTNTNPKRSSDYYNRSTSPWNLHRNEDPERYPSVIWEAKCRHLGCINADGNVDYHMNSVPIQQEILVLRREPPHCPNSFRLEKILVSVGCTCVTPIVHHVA
Protocol: The inhibition of receptor-ligand binding by human IL-17A (hIL-17A) inhibitors was detected by competitive ELISA. A 96-well plate was inoculated 0.2 μg/ml IL-17 (Sino Biological Inc. Cat #12047-H07B) for incubation at 37° C. for 30 min, 100 μL for per well. The 96-well plate was washed four times with phosphate buffered saline (PBS) containing Tween-20 (PBST, 0.05% Tween-20), 200 μL for per well each time. 200 μL of 5% skim milk were added into the 96-well plate for incubation on a shaker at 25° C. for 30 min. The 96-well plate was washed four times with PBST (0.05% Tween-20), and added with 89 μL of PBST and 1 μL of a compound to be measured (100×), in which a concentration the compound to be measured (100×) was 0.003 μM-30 μM. The mixture was mixed evenly and incubated at 25° C. for 10 min. The mixture was added with 10 μL of 16 nM IL-17R, followed by incubation at 25° C. for 30 min. After washing the 96-well plate 4 times, 100 μL of anti-Fc tag horseradish peroxidase (HRP) coupled antibody were added for incubation on a shaker at 25° C. for 30 min. After washing the 96-well plate 4 times, 100 μL of 3,3′,5,5′-tetramethylbenzidine (TMB) substrate solution were added to the 96-well plate for incubation away from light at 25° C. After addition of 20% HCl, an absorbance was measure by a microplate reader at 450 nm.
The compounds prepared according to the above method were assayed for human IL-17A inhibitory activity.

[2] = molecular target: T2, hIL-17A (Homo sapiens, UniProt Q16552); test: Inhibition of hIL-17A-induced chemokine GROα/CXCL1 production in HT-29 cell; format: cell-based
T2 construct: purchased R&D 317-ILB
T2 sequence (Q16552 20-155 limits assumed): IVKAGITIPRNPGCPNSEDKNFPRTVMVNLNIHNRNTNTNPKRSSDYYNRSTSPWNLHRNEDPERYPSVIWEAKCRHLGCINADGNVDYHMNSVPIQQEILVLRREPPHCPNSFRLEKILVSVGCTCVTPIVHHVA
Protocol: Human colorectal adenocarcinoma cell HT-29 was inoculated to a 96-well plate (5×10^4 for per well), and incubated at 37° C. on an incubator overnight. A mixture of 30 ng/mL hIL-17A protein (R&D, #317-ILB) with gradient concentrations of IL-17A small molecule inhibitors or with 0.3 μg/mL positive control IL-17A antibody (R&D, #AF-317-NA) was incubated for 1 h at 37° C., and added into the 96-well plate to incubated with HT-29 at 37° C. for 48 h. A level of GROα in a cell culture supernatant was then detected using an ELISA kit for GROα (Cisbio, #62HCXC1peg).
Inhibitory effect of the compound prepared in Examples on hIL-17A-induced chemokine GROα/CXCL1 production in HT-29 cell was tested according to the methods of Experimental Examples 1 and 2. […] “-” indicated not tested. According to the results, the compounds provided herein have good human IL-17A inhibitory activity and can be effectively used in the treatment of diseases associated with abnormal hIL-17A activity.

Compound	IC50 [1] [nM]	IC50 [2] [nM]
Cc1nonc1C(=O)N[C@H](C(=O)Nc1cnc(-c2c(C)n[nH]c2C)c(F)c1)C1c2ccc(F)cc2CC12CC2 (stereo partly shown) [Compound 29]	152	378
Cc1n[nH]c(C)c1-c1ccc(NC(=O)[C@@H](NC(=O)c2ccnn2C(C)C)C2c3cc(F)c(F)cc3OCC23CC3)cc1 (stereo partly shown) [Compound 48]	135	184
Cc1n[nH]c(C)c1-c1ccc(NC(=O)[C@@H](NC(=O)c2nonc2C(C)C)C2c3ccc(F)c(F)c3OCC23CC3)cn1 (stereo partly shown) [Compound 63]	156	605
Cc1n[nH]c(C)c1-c1ccc(NC(=O)[C@@H](NC(=O)c2nonc2C(C)C)C2c3ccc(F)c(F)c3OCC23CC3)cc1 (stereo partly shown) [Compound 65]	222	212
Cc1n[nH]c(C)c1-c1ccc(NC(=O)[C@@H](NC(=O)c2nonc2C2CC2)C2c3cc(F)cc(F)c3OCC23CC3)cc1 (stereo partly shown) [Compound 80]	406	762
Cc1n[nH]c(C)c1-c1ccc(NC(=O)[C@@H](NC(=O)c2ccnn2C)C2c3ccc(F)cc3OCC23CC3)cc1 (stereo partly shown) [Compound 17]	36	68
Cc1n[nH]c(C)c1-c1ncc(NC(=O)[C@@H](NC(=O)c2nonc2C(C)C)C2c3cc(F)cc(F)c3OCC23CC3)cc1F (stereo partly shown) [Compound 68]	503	1940
Cc1n[nH]c(C)c1-c1ccc(NC(=O)[C@@H](NC(=O)c2ccnn2C(C)C)C2c3cc(F)cc(F)c3OCC23CC3)cc1 (stereo partly shown) [Compound 70]	201	112
Cc1n[nH]c(C)c1-c1ccc(NC(=O)[C@@H](NC(=O)c2nonc2C(C)C)C2c3ccc(F)cc3OCC23CC3)cc1F (stereo partly shown) [Compound 40]	186	115
Cc1n[nH]c(C)c1-c1ccc(NC(=O)[C@@H](NC(=O)c2ccnn2C)C2c3ccc(F)cc3CC23CC3)cc1 (stereo partly shown) [Compound 16]	43	55
CCc1nocc1C(=O)N[C@H](C(=O)Nc1ccc(-c2c(C)n[nH]c2C)cc1)C1c2ccc(F)cc2OCC12CC2 (stereo partly shown) [Compound 36]	144	58
Cc1n[nH]c(C)c1-c1ncc(NC(=O)[C@@H](NC(=O)c2nonc2C2CC2)C2c3ccc(F)c(F)c3OCC23CC3)cc1F (stereo partly shown) [Compound 86]	179	718
Cc1n[nH]c(C)c1-c1ncc(NC(=O)[C@@H](NC(=O)c2nonc2C2CC2)C2c3ccc(F)cc3OCC23CC3)cc1F (stereo partly shown) [Compound 91]	67	1080
COCc1[nH]nc(C)c1-c1ccc(NC(=O)[C@@H](NC(=O)c2nonc2C)C2c3ccc(F)c(F)c3OCC23CC3)cc1 (stereo partly shown) [Compound 85]	133	1220
Cc1n[nH]c(C)c1-c1ccc(NC(=O)[C@@H](NC(=O)OC2CC2)C2c3cc(F)c(F)cc3OCC23CC3)cc1 (stereo partly shown) [Compound 106]	66	119
Cc1n[nH]c(C)c1-c1ccc(NC(=O)[C@@H](NC(=O)c2ccnn2C)C2c3cc(F)ccc3OCC23CC3)cn1 (stereo partly shown) [Compound 22]	85	1020
Cc1n[nH]c(C)c1-c1ccc(NC(=O)[C@@H](NC(=O)c2ccnn2C(C)C)C2c3cc(F)ccc3OCC23CC3)cn1 (stereo partly shown) [Compound 20]	61	878
Cc1n[nH]c(C)c1-c1ncc(NC(=O)[C@@H](NC(=O)c2ccnn2C(C)C)C2c3cc(F)cc(F)c3OCC23CC3)cc1F (stereo partly shown) [Compound 72]	343	1810
Cc1nonc1C(=O)N[C@H](C(=O)Nc1ccc(-c2c(C)n[nH]c2C)cc1)C1c2c(F)cccc2CC12CC2 (stereo partly shown) [Compound 14]	59	206
Cc1n[nH]c(C)c1-c1ncc(NC(=O)[C@@H](NC(=O)c2conc2C2CC2)C2c3ccc(F)cc3OCC23CC3)cc1F (stereo partly shown) [Compound 100]	189	563
Cc1n[nH]c(C)c1-c1ccc(NC(=O)[C@@H](NC(=O)c2ccnn2C)C2c3ccccc3CC23CC3)cc1 (stereo partly shown) [Compound 1]	18	404

Compound	IC50 [1] [nM]	IC50 [2] [nM]
Cc1n[nH]c(C)c1-c1ncc(NC(=O)[C@@H](NC(=O)c2ccnn2C(C)C)C2c3ccc(F)cc3OCC23CC3)cc1F (stereo partly shown) [Compound 90]	144	188
Cc1n[nH]c(C)c1-c1ccc(NC(=O)[C@@H](NC(=O)c2nonc2C(C)C)C2c3cc(F)c(F)cc3OCC23CC3)cc1 (stereo partly shown) [Compound 45]	125	50
Cc1n[nH]c(C)c1-c1ccc(NC(=O)[C@@H](NC(=O)c2ccnn2C)C2c3ccccc3OCC23CC3)cc1 (stereo partly shown) [Compound 3]	40	213
CCc1nonc1C(=O)N[C@H](C(=O)Nc1ccc(-c2c(C)n[nH]c2C)cc1)C1c2cc(F)cc(F)c2OCC12CC2 (stereo partly shown) [Compound 77]	320	1010
CCc1nonc1C(=O)N[C@H](C(=O)Nc1ccc(-c2c(C)n[nH]c2C)c(F)c1)C1c2ccc(F)cc2OCC12CC2 (stereo partly shown) [Compound 38]	276	506
Cc1n[nH]c(C)c1-c1ccc(NC(=O)[C@@H](NC(=O)c2nonc2C2CC2)C2c3ccc(F)cc3OCC23CC3)cc1 (stereo partly shown) [Compound 94]	572	695
Cc1n[nH]c(C)c1-c1ccc(NC(=O)[C@@H](NC(=O)c2nonc2C(C)C)C2c3ccc(F)cc3OCC23CC3)cc1 (stereo partly shown) [Compound 28]	110	83
Cc1n[nH]c(C)c1-c1ncc(NC(=O)[C@@H](NC(=O)c2conc2C2CC2)C2c3cc(F)c(F)cc3OCC23CC3)cc1F (stereo partly shown) [Compound 96]	125	134
Cc1nonc1C(=O)N[C@H](C(=O)Nc1ccc(-c2c(C)n[nH]c2C)cc1)C1c2ccc(F)cc2CC12CC2 (stereo partly shown) [Compound 15]	48	71
Cc1n[nH]c(C)c1-c1ccc(NC(=O)[C@@H](NC(=O)OC2CC2)C2c3cc(F)c(F)cc3OCC23CC3)cn1 (stereo partly shown) [Compound 105]	81	943
Cc1n[nH]c(C)c1-c1ccc(NC(=O)[C@@H](NC(=O)c2nonc2C(C)C)C2c3cc(F)cc(F)c3OCC23CC3)cn1 (stereo partly shown) [Compound 73]	294	795
Cc1nonc1C(=O)N[C@H](C(=O)Nc1ccc(-c2c(C)n[nH]c2C)cc1)C1c2ccc(F)c(F)c2OCC12CC2 (stereo partly shown) [Compound 57]	112	346
Cc1nonc1C(=O)N[C@H](C(=O)Nc1ccc(-c2c(C)n[nH]c2C)cc1)C1c2cc(F)cc(F)c2OCC12CC2 (stereo partly shown) [Compound 69]	288	941
Cc1n[nH]c(C)c1-c1ccc(NC(=O)[C@@H](NC(=O)c2nonc2C(C)C)C2c3cc(F)c(F)cc3OCC23CC3)cn1 (stereo partly shown) [Compound 44]	122	336
Cc1n[nH]c(C)c1-c1ccc(NC(=O)[C@@H](NC(=O)c2nonc2C2CC2)C2c3ccc(F)cc3OCC23CC3)cn1 (stereo partly shown) [Compound 95]	94	457
Cc1n[nH]c(C)c1-c1ccc(NC(=O)[C@@H](NC(=O)c2ccnn2C(C)C)C2c3ccc(F)c(F)c3OCC23CC3)cc1 (stereo partly shown) [Compound 56]	139	355
Cc1n[nH]c(C)c1-c1ccc(NC(=O)[C@@H](NC(=O)c2ccnn2C)C2c3cc(F)ccc3OCC23CC3)cc1 (stereo partly shown) [Compound 4]	50	50
Cc1n[nH]c(C)c1-c1ncc(NC(=O)[C@@H](NC(=O)c2ccnn2C(C)C)C2c3ccc(F)c(F)c3OCC23CC3)cc1F (stereo partly shown) [Compound 51]	155	313
CCc1nonc1C(=O)N[C@H](C(=O)Nc1ccc(-c2c(C)n[nH]c2C)nc1)C1c2cc(F)ccc2OCC12CC2 (stereo partly shown) [Compound 23]	98	1050
COC(=O)N[C@H](C(=O)Nc1ccc(-c2c(C)n[nH]c2C)cc1)C1c2cc(F)c(F)cc2OCC12CC2 (stereo partly shown) [Compound 107]	51	383
